From PMC12163657 (ACS Omega, 2025)

Experiments:
[1] = tested on: CAMA-1 ESR1 Tyr537Ser cells; assay: CAMA-1 cell proliferation, ESR1 Tyr537Ser; type: cell-based; conditions: Homo sapiens, CAMA-1, read-out: CAMA-1 cell prolif. pIC50 (converted)
[2] = Plasma protein binding, rapid equilibrium dialysis, mouse plasma; type: in vitro ADME; conditions: undiluted plasma
ERα = target: T1, ERα (Homo sapiens, UniProt P03372); assay: Alkaline phosphatase; type: cell-based
T1 sequence (P03372 1-595): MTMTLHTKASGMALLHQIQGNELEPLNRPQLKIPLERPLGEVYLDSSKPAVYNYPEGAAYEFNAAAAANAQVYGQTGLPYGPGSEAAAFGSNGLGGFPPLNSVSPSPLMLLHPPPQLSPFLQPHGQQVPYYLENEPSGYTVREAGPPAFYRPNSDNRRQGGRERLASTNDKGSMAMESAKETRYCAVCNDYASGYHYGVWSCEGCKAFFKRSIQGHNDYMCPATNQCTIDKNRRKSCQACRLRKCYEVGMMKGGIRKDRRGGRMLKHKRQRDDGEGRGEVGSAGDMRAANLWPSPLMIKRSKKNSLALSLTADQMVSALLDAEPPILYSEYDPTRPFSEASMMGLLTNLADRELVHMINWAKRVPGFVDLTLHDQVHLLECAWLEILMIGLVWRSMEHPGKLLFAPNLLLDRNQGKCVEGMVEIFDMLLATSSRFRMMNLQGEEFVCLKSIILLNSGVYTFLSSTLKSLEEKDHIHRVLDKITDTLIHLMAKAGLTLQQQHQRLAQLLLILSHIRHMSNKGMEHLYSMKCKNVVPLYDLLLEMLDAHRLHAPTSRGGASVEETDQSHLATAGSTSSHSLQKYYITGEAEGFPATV

P-gp = P-gp (Homo sapiens, UniProt P08183); assay: P-gp inhibition, membrane vesicles; type: in vitro ADME
hERG ion channels = hERG ion channels (Homo sapiens, UniProt Q12809); assay: hERG patch clamp assay; type: cell-based; conditions: at 30 μM
[3] = Single-dose pharmacokinetics, mouse; type: in vivo; conditions: serum
ST941/C cells = assay: ST941/C cell proliferation; type: cell-based; conditions: read-out: ST941/C cell prolif. pIC50 (converted)
AR = target: T2, AR (Homo sapiens, UniProt P10275); assay: Reporter assay of gene transcription activity, AR; type: cell-based; conditions: for IC50: reporter assay
T2 sequence (P10275 1-920): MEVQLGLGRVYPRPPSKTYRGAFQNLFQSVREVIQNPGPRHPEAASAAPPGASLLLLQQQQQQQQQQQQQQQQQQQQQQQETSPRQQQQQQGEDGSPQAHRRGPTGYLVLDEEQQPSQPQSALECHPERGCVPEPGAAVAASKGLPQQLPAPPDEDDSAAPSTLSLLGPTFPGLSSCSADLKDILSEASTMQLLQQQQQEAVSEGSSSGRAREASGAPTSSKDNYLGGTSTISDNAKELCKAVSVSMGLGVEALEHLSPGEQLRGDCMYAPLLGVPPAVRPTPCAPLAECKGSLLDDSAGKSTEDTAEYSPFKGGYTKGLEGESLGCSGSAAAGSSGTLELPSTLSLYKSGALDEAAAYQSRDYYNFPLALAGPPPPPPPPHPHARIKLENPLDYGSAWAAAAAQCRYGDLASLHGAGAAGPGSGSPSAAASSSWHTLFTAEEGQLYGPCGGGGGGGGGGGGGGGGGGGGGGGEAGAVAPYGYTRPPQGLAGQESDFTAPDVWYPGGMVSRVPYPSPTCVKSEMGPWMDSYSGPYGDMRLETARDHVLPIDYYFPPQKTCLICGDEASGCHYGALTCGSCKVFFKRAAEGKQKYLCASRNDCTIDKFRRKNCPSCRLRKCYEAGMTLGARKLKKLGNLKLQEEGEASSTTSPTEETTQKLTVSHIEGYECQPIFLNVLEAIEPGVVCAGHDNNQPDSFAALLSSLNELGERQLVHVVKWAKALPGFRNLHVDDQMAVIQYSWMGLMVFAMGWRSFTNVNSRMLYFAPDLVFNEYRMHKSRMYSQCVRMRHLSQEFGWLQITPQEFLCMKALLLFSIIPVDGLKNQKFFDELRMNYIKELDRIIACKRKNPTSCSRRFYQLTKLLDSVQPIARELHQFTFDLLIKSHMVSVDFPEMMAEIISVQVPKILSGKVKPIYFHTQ

[4] = Single-dose pharmacokinetics, monkey; type: in vivo; conditions: serum
[5] = Single-dose pharmacokinetics, dog; type: in vivo; conditions: Beagle, serum, 10 mg/kg
[6] = Plasma protein binding, rapid equilibrium dialysis, rat plasma; type: in vitro ADME
ERα LBD = target: T3, ERα LBD (Homo sapiens, UniProt P03372); assay: LanthaScreen TR-FRET ERα competitive binding assay
T3 sequence (P03372 311-547 limits assumed): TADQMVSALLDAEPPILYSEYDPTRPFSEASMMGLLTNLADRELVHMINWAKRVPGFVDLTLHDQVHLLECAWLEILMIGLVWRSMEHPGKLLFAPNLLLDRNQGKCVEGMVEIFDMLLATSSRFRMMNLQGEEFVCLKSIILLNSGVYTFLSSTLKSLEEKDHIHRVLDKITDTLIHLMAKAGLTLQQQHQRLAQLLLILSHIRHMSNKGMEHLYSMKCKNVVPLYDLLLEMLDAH

[7] = Plasma protein binding, rapid equilibrium dialysis, dog plasma; type: in vitro ADME

Sequence of hERG ion channels (Q12809 whole entry): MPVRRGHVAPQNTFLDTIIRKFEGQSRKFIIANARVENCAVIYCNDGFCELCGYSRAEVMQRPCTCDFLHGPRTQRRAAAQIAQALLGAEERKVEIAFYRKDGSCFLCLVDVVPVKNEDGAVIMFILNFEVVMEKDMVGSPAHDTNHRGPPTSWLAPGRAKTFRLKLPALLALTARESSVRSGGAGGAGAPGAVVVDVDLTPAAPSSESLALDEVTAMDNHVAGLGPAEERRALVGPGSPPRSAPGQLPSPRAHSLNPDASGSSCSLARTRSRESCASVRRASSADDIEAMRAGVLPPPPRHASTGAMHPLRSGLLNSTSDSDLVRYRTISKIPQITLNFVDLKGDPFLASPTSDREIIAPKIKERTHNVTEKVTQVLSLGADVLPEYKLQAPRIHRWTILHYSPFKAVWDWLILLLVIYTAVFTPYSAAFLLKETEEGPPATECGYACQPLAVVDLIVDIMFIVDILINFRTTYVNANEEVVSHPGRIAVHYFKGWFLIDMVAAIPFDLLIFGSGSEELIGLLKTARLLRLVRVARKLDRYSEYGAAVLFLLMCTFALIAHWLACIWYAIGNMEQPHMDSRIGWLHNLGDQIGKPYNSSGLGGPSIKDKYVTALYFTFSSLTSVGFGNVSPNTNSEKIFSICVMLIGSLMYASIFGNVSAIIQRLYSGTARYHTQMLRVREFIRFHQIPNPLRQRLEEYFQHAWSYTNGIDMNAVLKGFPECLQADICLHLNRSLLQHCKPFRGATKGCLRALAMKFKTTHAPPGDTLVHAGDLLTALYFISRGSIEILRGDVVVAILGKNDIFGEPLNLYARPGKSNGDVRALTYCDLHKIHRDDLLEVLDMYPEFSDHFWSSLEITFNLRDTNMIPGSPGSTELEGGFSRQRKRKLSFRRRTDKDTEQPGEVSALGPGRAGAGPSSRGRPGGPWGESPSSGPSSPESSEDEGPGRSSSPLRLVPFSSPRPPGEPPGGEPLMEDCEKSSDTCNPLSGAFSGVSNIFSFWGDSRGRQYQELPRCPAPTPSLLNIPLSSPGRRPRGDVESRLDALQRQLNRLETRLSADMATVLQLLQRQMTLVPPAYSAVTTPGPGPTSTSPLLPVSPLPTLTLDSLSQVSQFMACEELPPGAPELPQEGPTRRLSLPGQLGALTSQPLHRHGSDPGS
Sequence of P-gp (P08183 whole entry): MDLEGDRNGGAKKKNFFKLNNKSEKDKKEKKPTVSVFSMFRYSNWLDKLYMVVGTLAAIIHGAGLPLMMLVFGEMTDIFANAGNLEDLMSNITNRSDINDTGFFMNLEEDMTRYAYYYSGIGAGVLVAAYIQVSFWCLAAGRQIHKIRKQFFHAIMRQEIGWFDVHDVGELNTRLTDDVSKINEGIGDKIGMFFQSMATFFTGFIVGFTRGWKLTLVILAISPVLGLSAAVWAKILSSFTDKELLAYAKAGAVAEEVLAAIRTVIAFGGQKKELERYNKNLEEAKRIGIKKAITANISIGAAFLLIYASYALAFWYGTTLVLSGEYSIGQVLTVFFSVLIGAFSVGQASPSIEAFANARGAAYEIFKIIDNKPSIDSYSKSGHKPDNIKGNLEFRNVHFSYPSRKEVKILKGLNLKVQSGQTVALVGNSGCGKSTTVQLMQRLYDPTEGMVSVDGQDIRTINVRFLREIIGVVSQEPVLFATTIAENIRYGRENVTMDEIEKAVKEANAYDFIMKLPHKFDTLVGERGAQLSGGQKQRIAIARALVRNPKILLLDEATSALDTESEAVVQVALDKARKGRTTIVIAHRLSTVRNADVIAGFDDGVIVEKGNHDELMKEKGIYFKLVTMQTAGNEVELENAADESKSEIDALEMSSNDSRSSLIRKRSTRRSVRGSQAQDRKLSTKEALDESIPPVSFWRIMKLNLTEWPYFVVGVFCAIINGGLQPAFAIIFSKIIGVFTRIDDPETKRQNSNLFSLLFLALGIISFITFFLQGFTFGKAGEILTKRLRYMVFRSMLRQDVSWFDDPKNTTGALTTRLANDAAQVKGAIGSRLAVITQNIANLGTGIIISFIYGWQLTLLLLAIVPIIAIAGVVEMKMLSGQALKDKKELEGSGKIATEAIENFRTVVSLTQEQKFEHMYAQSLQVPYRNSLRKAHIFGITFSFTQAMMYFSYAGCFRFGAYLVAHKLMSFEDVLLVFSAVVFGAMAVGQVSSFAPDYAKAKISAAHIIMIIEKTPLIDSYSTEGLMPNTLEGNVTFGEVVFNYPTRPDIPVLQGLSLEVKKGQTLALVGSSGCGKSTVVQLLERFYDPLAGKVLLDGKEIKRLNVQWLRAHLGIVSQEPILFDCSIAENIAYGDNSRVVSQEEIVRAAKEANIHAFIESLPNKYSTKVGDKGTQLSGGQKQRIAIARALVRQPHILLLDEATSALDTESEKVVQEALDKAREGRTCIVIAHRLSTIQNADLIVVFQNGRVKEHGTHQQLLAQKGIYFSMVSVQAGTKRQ

fraction unbound at 4 h, 1 µM [2]: 0.0006
IC50 (ERα): 3.16 nM
IC50 (P-gp): 4000 nM
AUC ([3]; iv, 0.5 mg/kg): 161 ng·h/mL
Cmax ([3]; iv, 0.5 mg/kg): 29 ng/mL
Vd ([3]; iv, 0.5 mg/kg): 27 L/kg
clearance ([3]; iv, 0.5 mg/kg): 51.7 mL/min/kg
half-life ([3]; iv, 0.5 mg/kg): 7 h
AUC ([3]; po, 5 mg/kg): 1030 ng·h/mL
Cmax ([3]; po, 5 mg/kg): 91 ng/mL
Tmax ([3]; po, 5 mg/kg): 1 h
bioavailability ([3]; po, 5 mg/kg): 72%
half-life ([3]; po, 5 mg/kg): 10 h
IC50 (AR; AR pIC50, agonist mode, agonist mode): > 3160 nM
IC50 (AR; AR pIC50, antag. mode, antag. mode (agonist-induced activity)): 1580 nM
agonist cross-reactivity on AR (AR; in words): no agonist cross-reactivity
AUC ([4]; iv, 3 mg/kg): 3420 ng·h/mL
Cmax ([4]; iv, 3 mg/kg): 651 ng/mL
Vd ([4]; iv, 3 mg/kg): 49 L/kg
clearance ([4]; iv, 3 mg/kg): 13.3 mL/min/kg
half-life ([4]; iv, 3 mg/kg): 42 h
AUC ([4]; po, 10 mg/kg): 5090 ng·h/mL
Cmax ([4]; po, 10 mg/kg): 170 ng/mL
Tmax ([4]; po, 10 mg/kg): 8 h
bioavailability ([4]; po, 10 mg/kg): 44.4%
half-life ([4]; po, 10 mg/kg): 34 h
AUC ([5]; iv): 41300 ng·h/mL
Cmax ([5]; iv): 4060 ng/mL
Vd ([5]; iv): 16 L/kg
clearance ([5]; iv): 3.33 mL/min/kg
half-life ([5]; iv): 63 h
AUC ([5]; po): 33700 ng·h/mL
Cmax ([5]; po): 1760 ng/mL
Tmax ([5]; po): 1.5 h
bioavailability ([5]; po): 89%
half-life ([5]; po): 106 h
Plasma free drug percentage [6]: 0.24%
IC50 (ERα LBD): 2 nM
Plasma free drug percentage [7]: 0.04%
Compound: CCCN1CC(Oc2ccc([C@@H]3c4[nH]c5ccccc5c4C[C@@H](C)N3CC(C)(C)F)cc2)C1 [compound 21, (1R,3R)-2-(2-Fluoro-2-methylpropyl)-3-methyl-1-(4-((1-propylazetidin-3-yl)oxy)phenyl)-2,3,4,9-tetrahydro-1H-pyrido[3,4-b]indole]
IC50 [1]: 12.6 nM
hERG inhibition (hERG ion channels): did not inhibit
IC50 (ST941/C cells): 31.6 nM
